Reference: a melting point compilation (Tetko et al.; mined from patent text by program, amines drawn as free bases though some values may be those of a salt)

| SMILES | melting point |
| --- | --- |
| Nc1nc2ccccc2c2c1nc(CO)n2Cc1cc(-c2ccc(F)cc2)no1 | 262 to 263 °C |
| O=C(O)c1ccccc1-c1cc(-c2cccc(C(F)(F)F)c2)no1 | 175 to 176 °C |
| CCOc1cc(COc2nn(Cc3ccccc3)cc2C=O)ccc1OCc1nc(-c2ccco2)oc1C | 144 to 145 °C |
| CC(C)c1ccn2nc(S(=O)(=O)Cl)nc2n1 | 60 to 62 °C |
| Cc1ncsc1C(=O)Nc1ccc(-n2nc(C3CC3)cc2C2CC2)c(F)c1 | 102 to 106 °C |
| Cc1nc(NC2CC2)ccc1N1CCCn2c1nc1c(Cl)ccc(C(OC(F)F)C(F)(F)F)c12 (centres undefined) | 168 to 170 °C |
| O=C(O)CCCc1ccc(C(NS(=O)(=O)c2ccc(Cl)cc2)C2CCCC2)cc1 (single isomer, unassigned; (-)) | 160 to 162 °C |
| CCCCC(CC(=O)O)c1cc(Cl)c(OC)cc1OC (centres undefined) | 91 to 92 °C |
| COc1cccc(N2CCN(CCC(=O)O)CC2)c1 | 180 to 183 °C |
| CC(C)(Cc1ccc(O)cc1)NCC(O)c1cc(OCc2ccccc2)cc2c1OCC(=O)N2 (centres undefined) | 255 to 258 °C |
| COc1ccccc1N1CCN(CC(O)CCl)CC1 (centres undefined) | 96 to 98 °C |
| COc1ccc(C2=NN(c3ccc(C4=NNC(=O)CC4C)cc3)C(=O)C3CCCCC23)cc1OC1CCCC1 (centres undefined) | 134 to 141 °C |
| CCCCc1nc(Cl)c(Cl)[nH]1 | 122 to 123 °C |
| Cn1cc(CS(C)(=O)=O)c(=O)c2ccc(C(F)(F)F)cc21 | 240 to 242 °C |
| CN(Cc1ccccc1)c1cc(C#N)ccc1C1NC(=O)NC1=O (centres undefined) | 95 to 98 °C |
| C=C1SC(=O)N(c2ccc3cc(-c4ccc(OC)c(-c5ccccc5)c4)ccc3c2)C1=O | 221 to 224 °C |
| CCc1sc(NC(=O)C2=C(O)c3ccc4ccccc4c3S(=O)(=O)N2C)nc1C | 253 to 255 °C |
| CC(=O)N(C)c1c(C(=O)c2cccc(Cl)c2)[nH]c2cc(Cl)ccc12 | 202 to 203 °C |
| COc1cc(OCCN2CCCC2)cc2nc(-c3cc(C)nc(C)c3)[nH]c(=O)c12 | 227 to 229 °C |
| COc1ccccc1C(=O)c1cccc(N)c1 | 81 °C |
| CCC1C(C)=NN=C(c2ccc(OC)c(OC)c2)c2cc(OC)c(OC(C)C)cc21 (centres undefined) | 109 to 111 °C |
| Cc1cccc(C)c1CNc1cc(Br)cc2c1nc(C)n2COCc1ccccc1 | 147 to 148 °C |
| CCCCCCCCCCN(O)C(=O)NCCCCCCC(=O)OC | 81 to 82 °C |
| CC1CCCN(C(=O)C2C(C)c3ccccc3N2c2ccc(Cl)nn2)C1 (centres undefined) | 169 to 171 °C |
| Cc1nc(Cc2ccc([N+](=O)[O-])cc2)sc1C | 93 to 94 °C |

| SMILES | melting point |
| --- | --- |
| Oc1ccc(C2=C(c3ccc(OC4CCCCO4)cc3)CCCc3cc(OC4CCCCO4)ccc32)cc1 (centres undefined) | 182 to 183 °C |
| CCOC(=O)CNS(=O)(=O)c1sccc1C=O | 74 to 76 °C |
| COc1nc(N)nn1C | 177 to 180 °C |
| FC(F)(F)c1cccc(Oc2cc(Oc3cccc(C(F)(F)F)c3)nc(Br)n2)c1 | 126 to 129 °C |
| CCC(C)n1cc(Cl)nc(N2CCc3cc(OC)cc(Cl)c32)c1=O (centres undefined) | 143 to 145 °C |
| CCC(C)c1ccc(-n2c(-c3ccc(OCCO)cc3)nc3ccccc3c2=O)cc1 (centres undefined) | 173 to 175 °C |
| CC(C)C(=O)c1ccc(OCc2ccc(CNC(=O)c3cn(C)cn3)cc2)c(C(F)(F)F)c1O | 165 °C |
| O=C1c2ccccc2-c2c1cccc2-c1nc2ccncc2[nH]1 | 236 to 238 °C |
| Cc1nccn1CCCNC(=O)c1cccc2oc(-c3ccccc3)nc12 | 145 to 148 °C |
| CC1=C(c2ccccc2)n2nc(C)c3c(=O)[nH]c(=S)n(c32)C1 | 255 to 257 °C |
| O=C(O)CCCCCc1nc2c(F)c(F)cc(F)c2s1 | 84 to 86 °C |
| CCOC(=O)c1c(N2CCN(C(=O)c3cccs3)CC2)c2cccnc2n(C)c1=O | 164 °C |
| COc1cc(NC(=O)c2ccccn2)ccc1Oc1ncccn1 | 203 to 205 °C |
| COC(=O)C1CCC2C3CCC4CC(O)CCC4(C)C3C(NC3CCCC3)CC12C (centres undefined) | 143 to 145 °C |
| COc1ccc(-n2cncc2-c2ccccc2)cc1 | 106 °C |
| COC(=O)c1cccc2c1c1c(OC)c3c(cc1n2Cc1ccccc1)CCCC3 | 144 to 146 °C |
| O=C(O)C(=O)N1CCC(Cc2ccc(Cl)cc2)CC1 | 147 to 148 °C |
| O=C(Nc1cccc2ccccc12)NC(Cc1ccc(C(F)(F)F)cc1)C(O)c1ccc(F)cc1 (centres undefined) | 222 to 223 °C |
| COC(=O)[C@H](c1ccccc1Cl)N1CCc2sc(OC(=O)COc3ccccc3)cc2C1 | 104 to 106 °C |
| CC(C)CN1C(=O)N(C)C2(NC(=O)NC2=O)c2ccccc21 (centres undefined) | 270 °C |
| COC(=O)C(Oc1ccc(C2CCCCC2)cc1)c1ccc(Oc2ccc(Cl)cc2)cc1 (centres undefined) | 122 to 124 °C |
| O=C(Cc1ccc2ccccc2n1)NC1CCC2(O)C3Cc4ccc(O)c5c4C2(CCN3CC2CC2)C1O5 (centres undefined) | 212 to 214 °C |
| COc1cccc(-c2nn(Cc3oc4ccccc4c(=O)c3-c3ccccc3)c3ncnc(N)c23)c1 | 111 to 115 °C |
| CC1(C)CC(S(=O)(=O)Cc2c(Cl)nn(C(F)F)c2C(F)(F)F)=NO1 | 136 to 137 °C |
| COc1ccc2[nH]cc(/C(C#N)=C/c3cccc(C(N)=O)c3)c2c1 | 234 °C |

| SMILES | melting point |
| --- | --- |
| CCCCCS(=O)(=O)NC(=O)/C=C/c1cc(OCCOC)nn1Cc1ccc(C(F)(F)F)cc1Cl | 130 to 132 °C |
| Nc1ccc(OCc2c(Cl)cccc2Cl)cc1[N+](=O)[O-] | 155 °C |
| COc1cc(Br)cc2nc(SCc3ccccc3)nn12 | 80 to 82 °C |
| Cc1ccccc1OCCC1CCN(c2cc(Cl)nnc2Cl)CC1 | 106 to 108 °C |
| CC(C)c1cccc(C(C)C)c1NC(=O)Nc1ccc(Oc2ccc3nc(COc4ccc(CC5SC(=O)NC5=O)cc4)n(C)c3c2)cc1 (centres undefined) | 222 to 225 °C |
| CC(C)Oc1ccc(NC(=S)NCc2ccsc2)cc1 | 80.5 to 81.5 °C |
| CCCCOC(=O)C(=O)Nc1nc2ccccc2s1 | 137 to 138 °C |
| Cc1nc(-n2cnn(CCNCc3ccc(F)cc3)c2=O)sc1C(=O)NCc1cccnc1 | 106 to 107 °C |
| CC(=O)C=Cc1c(C)c(C)c(C)c2c1OC(C)(C)C2 | 125 °C |
| CS(=O)(=O)c1ccc(C(Cc2ccc(F)cc2)C(=O)Nc2nc3ccc(CO)cc3o2)cc1 (centres undefined) | 128 to 130 °C |
| CCOC(=O)CCC(C)C1CC=C2C3=C(CCC21C)C1(C)CCC(O)C(C)(C)C1CC3 (centres undefined) | 122 to 124 °C |
| COc1ccc(C(C#Cc2ccccc2)CNC(C)=O)cc1OC1CCCC1 (racemic) | 114 to 117 °C |
| N#CC(C#N)=NC1=C(N2CCOCC2)CCC1 | 157 to 158 °C |
| C=CCCN(CCC=C)Cc1noc(-c2ncn3c2[C@@H]2CCN2C(=O)c2ccccc2-3)n1 | 80 to 87 °C |
| O=C1CC(Br)(CC(Br)(Br)Br)O1 (centres undefined) | 71 to 73 °C |
| Nc1c(-c2ccc(C(F)(F)F)cc2F)nnn1-c1ccc(S(N)(=O)=O)cc1 | 184 to 185 °C |
| Cc1cnc(CO)cc1C(c1cc(F)ccc1F)S(=O)(=O)c1ccc(Cl)cc1 (centres undefined) | 196 to 198 °C |
| CCn1cc(C(=O)O)c(=O)c2ccc(I)cc21 | 237 to 238 °C |
| CC(=O)Oc1ccc(C(=O)c2cccc(OC(C)=O)c2)cc1 | 81 to 83 °C |
| O=Cc1ccc(-c2ccc(-c3ccc(C=O)o3)cc2)o1 | 233 to 234 °C |
| NC(=O)c1c(Cl)ccc([N+](=O)[O-])c1Cl | 163 to 165 °C |
| CCOC(=O)COc1ccc2c(-c3ccccc3F)noc2c1Br | 130 to 131 °C |
| CCOC(=O)c1ccc(CNC(=O)c2csc3nc(C(=O)OCC)[nH]c(=O)c23)cc1 | 227 to 228 °C |
| O=C(O)CCc1ccc(-c2nc3c(=O)n(CC4CCCCC4)c(=O)n(CC4CCCCC4)c3[nH]2)cc1 | > 300 °C |
| O=C(O)C=CSc1c[nH]c2ccccc12 | 172 to 173 °C |

| SMILES | melting point |
| --- | --- |
| Cc1cc(NC(=O)NCc2ccc3c(c2)CN(C2CCC(=O)NC2=O)C3=O)ccc1O (centres undefined) | 210 to 212 °C |
| Cc1cc(C2=NOC(O)(C(F)(F)F)C2Cl)c(F)cc1Cl (centres undefined) | 90 to 91 °C |
| COC(=O)c1cc(-c2ncnc(C)c2C#N)c(F)cc1Cl | 142 to 144 °C |
| COc1cc(C)nn1-c1ccc(Br)cc1 | 67 to 68 °C |
| O=C(O)N1C=NN2c3cccnc3N(c3cccc(Cl)c3)CC12 (centres undefined) | 213 to 216 °C |
| Cn1c(=O)n(C)c2cc3c(N4CCN(C(=O)Nc5ccc(Oc6ccccc6)cc5)CC4)ncnc3cc21 | 250 to 255 °C |
| CC(C)S(=O)(=O)ON=C(C#N)c1cccs1 | 80 to 82 °C |
| FC(F)(F)c1ccc(OCCC(Br)c2ccccc2)cc1 (centres undefined) | 61 to 63 °C |
| Cc1ccccc1NC(=O)Nc1ccc(N)cc1 | > 300 °C |
| COCCOc1ccc(CCNC(=O)c2cnc3ccccc3c2)cc1S(N)(=O)=O | 170 °C |
| CN1C(=O)C2CC(c3ccc([N+](=O)[O-])cc3)(C2)C1=O | 185 to 188 °C |
| COc1cc2cnnc(N3CCC4(CC3)OCCCO4)c2cc1OC | 194 to 196 °C |
| OC1CSC(Oc2cc(-c3ccc(F)nc3)cnc2F)C(O)C1O (centres undefined) | 158 to 159 °C |
| Cc1nc(-n2nnc(C(=O)NCc3ccccc3)c2C)sc1C(=O)NCc1ccccc1 | 183 to 186 °C |
| CCOC(=O)c1cc(/C=C/c2ccc3ccccc3n2)cn1C | 140 to 142 °C |
| COc1ccc(C(=O)CCC2CCCCC2)c(OC)c1 | 34 to 35 °C |
| Cc1c(C2CCC(c3ccccc3)(N(C)C)CC2)[nH]c2ccc(OC(F)(F)F)cc12 (centres undefined) | 219 to 221 °C |
| Cn1cc(C(=O)NCc2ccc(Cl)cc2)c(=O)c2cc(COCC(=O)c3ccccc3)sc21 | 209 °C |
| Cc1ccc(N(C)S(=O)(=O)c2cccnc2Cl)c2[nH]c(C3=NCC(CN4CCOCC4)S3)cc12 (centres undefined) | 151 to 153 °C |
| COC(=O)C1C(Sc2ccccc2)CC2CCC1N2C (centres undefined) | 55 to 57 °C |
| Cc1ccc(C=CC(C)N(O)C(N)=O)o1 (centres undefined) | 122 to 124 °C |
| Cc1ccccc1N1CCN(C2CCc3cc(O)ccc3C2)CC1 (centres undefined) | 177 to 179 °C |
| CC(C)(Oc1ccccc1)C(=O)N[C@H]1CC[C@H](c2ccc(O)cc2)CC1 | 114 to 117 °C |
| Cn1cncc1C(c1ccc(Cl)cc1)c1ccc2c(c1)c(-c1nc(-c3ccccc3)cs1)cc(=O)n2C (centres undefined) | 171 °C |
